This test concerns the target PI3K (p110α/p85α) (Homo sapiens (Human), UniProt P42336). The test can be described thus: PI3K HTRF enzyme assay, p110α/p85α. The class given is biochemical. As to conditions: read-out: % inhibition @ 500 nM p110α; compound at 500 nM, 10 μM ATP. As to the method:
Recombinant PI3K (p110α/p85α) and PI3K (p110β/p85α) were from Millipore. […] Briefly, the compounds of interest dissolved in 100% DMSO were dispensed in all wells, following which the mixture of PIP2 and enzyme was added. PI3K (p110α/p85α) and PI3K (p110β/p85α) enzyme reactions were initiated in the presence of 10 μM and 100 μM ATP, respectively, and incubated for 30 min at room temperature. STOP solution prepared 2 hours prior to use was added to stop reactions, and mixed well. Detection solution prepared 2 hours prior to use was added, and incubated at room temperature for 17 hours in the dark. […] HTRF ration was calculated as follows: […]
(Time-resolved FRET reads energy transfer from a long-lived donor to a nearby acceptor.)

As a reminder, the inhibition is the percentage by which the read-out fell short of the control.

Chain of PI3K (p110α/p85α) (P42336 whole entry, species assumed): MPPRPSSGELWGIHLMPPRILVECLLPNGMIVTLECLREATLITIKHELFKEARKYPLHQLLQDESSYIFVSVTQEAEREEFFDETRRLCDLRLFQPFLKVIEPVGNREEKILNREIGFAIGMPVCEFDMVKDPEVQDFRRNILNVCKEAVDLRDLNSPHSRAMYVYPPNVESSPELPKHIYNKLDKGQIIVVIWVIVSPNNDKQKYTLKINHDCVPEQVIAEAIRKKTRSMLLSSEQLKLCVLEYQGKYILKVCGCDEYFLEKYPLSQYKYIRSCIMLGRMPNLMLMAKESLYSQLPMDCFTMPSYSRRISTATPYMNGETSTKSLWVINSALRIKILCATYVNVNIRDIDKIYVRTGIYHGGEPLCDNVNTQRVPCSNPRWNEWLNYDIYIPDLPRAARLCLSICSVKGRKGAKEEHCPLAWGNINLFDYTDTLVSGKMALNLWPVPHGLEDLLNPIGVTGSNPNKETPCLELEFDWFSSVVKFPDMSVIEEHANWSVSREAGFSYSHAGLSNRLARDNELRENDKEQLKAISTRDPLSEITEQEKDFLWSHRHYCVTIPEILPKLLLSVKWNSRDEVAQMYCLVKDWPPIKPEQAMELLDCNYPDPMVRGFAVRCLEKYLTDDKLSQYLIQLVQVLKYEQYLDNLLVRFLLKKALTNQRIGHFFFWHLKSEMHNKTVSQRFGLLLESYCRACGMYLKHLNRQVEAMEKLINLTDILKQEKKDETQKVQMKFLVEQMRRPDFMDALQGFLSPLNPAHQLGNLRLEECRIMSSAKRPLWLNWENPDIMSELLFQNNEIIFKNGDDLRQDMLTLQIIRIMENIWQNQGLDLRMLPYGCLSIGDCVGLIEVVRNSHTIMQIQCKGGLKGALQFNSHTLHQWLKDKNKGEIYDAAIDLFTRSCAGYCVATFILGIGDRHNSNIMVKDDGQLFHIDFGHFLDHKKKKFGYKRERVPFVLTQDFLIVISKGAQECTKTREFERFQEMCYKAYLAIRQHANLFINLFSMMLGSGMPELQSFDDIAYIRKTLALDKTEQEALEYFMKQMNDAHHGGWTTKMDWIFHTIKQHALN
Chain of PI3K (p110α/p85α) (P27986 whole entry partner, species assumed): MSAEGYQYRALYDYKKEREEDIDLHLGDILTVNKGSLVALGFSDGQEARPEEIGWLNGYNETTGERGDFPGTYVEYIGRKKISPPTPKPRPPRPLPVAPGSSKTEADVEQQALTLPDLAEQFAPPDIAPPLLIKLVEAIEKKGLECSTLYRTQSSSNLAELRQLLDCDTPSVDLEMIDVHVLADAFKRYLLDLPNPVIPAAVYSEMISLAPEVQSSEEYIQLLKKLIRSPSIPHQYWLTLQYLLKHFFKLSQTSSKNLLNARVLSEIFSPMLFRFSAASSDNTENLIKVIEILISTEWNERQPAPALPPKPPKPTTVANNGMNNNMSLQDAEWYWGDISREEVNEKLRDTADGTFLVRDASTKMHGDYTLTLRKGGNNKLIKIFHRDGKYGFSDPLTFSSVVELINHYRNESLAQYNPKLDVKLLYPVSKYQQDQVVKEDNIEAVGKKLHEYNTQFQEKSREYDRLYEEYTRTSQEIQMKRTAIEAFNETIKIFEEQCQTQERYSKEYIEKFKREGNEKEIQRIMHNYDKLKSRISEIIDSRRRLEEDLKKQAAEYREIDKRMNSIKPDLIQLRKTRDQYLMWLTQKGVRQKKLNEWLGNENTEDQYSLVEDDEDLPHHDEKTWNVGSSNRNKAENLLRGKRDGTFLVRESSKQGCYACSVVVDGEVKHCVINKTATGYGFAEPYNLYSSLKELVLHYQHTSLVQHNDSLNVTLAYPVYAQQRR

For the compound `COc1cnc(-c2ccc(NC(=O)Nc3ccc(N4CCOCC4)cc3)cc2)nc1N1CCOCC1` [MTR-0261, 1-[4-(5-Methoxy-4-morpholin-4-yl-pyrimidin-2-yl)-phenyl]-3-(4-morpholin-4-yl-phenyl)-urea], the inhibition at 0.5 µM is 58.4%. For `NC(=O)c1ccc(NC(=O)Nc2ccc(-c3ncc(OCCN4CCOCC4)c(N4CCOCC4)n3)cc2)cc1` [MTR-0456, 4-(3-{4-[4-Morpholin-4-yl-5-(2-morpholin-4-yl-ethoxy)-pyrimidin-2-yl]-phenyl}-ureido)-benzamide] the value was 52.6%; for `CSc1c(Cl)nc(-c2ccc(NC(=O)Nc3ccc(NS(C)(=O)=O)cc3)cc2)nc1N1CCOCC1` [MTR-0347, N-(4-{3-[4-(4-Chloro-5-methylsulfanyl-6-morpholin-4-yl-pyrimidin-2-yl)-phenyl]-ureido}-phenyl)-methanesulfonamide], 80.6%; for `CCOc1cnc(-c2ccc(NC(=O)Nc3ccc(S(C)(=O)=O)cc3)cc2)nc1N1CCOCC1` [MTR-0424, 1-[4-(5-Ethoxy-4-morpholin-4-yl-pyrimidin-2-yl)-phenyl]-3-(4-methanesulfonyl-phenyl)-urea], 71.5%. As for `CSc1cnc(-c2ccc(NC(=O)Nc3ccc(NS(C)(=O)=O)cc3)cc2)nc1N1CCOCC1` [MTR-0376, N-(4-{3-[4-(5-Methylsulfanyl-4-morpholin-4-yl-pyrimidin-2-yl)-phenyl]-ureido}-phenyl)-methanesulfonamide], the figure is 79.4%; as for `CCOC(=O)c1nc(-c2ccc(NC(=O)Nc3ccc(C(=O)N4CCOCC4)cc3)cc2)nc(N2CCOCC2)c1OCC` [MTR-0278, 5-Ethoxy-2-(4-{3-[4-(morpholine-4-carbonyl)-phenyl]-ureido}-phenyl)-6-morpholin-4-yl-pyrimidine-4-carboxylic acid ethyl ester], 58.6%; as for `CSc1cnc(-c2ccc(NC(=O)Nc3ccc(N4CCOCC4)cc3)cc2)nc1N1CCOCC1` [MTR-0248, 1-[4-(5-Methylsulfanyl-4-morpholin-4-yl-pyrimidin-2-yl)-phenyl]-3-(4-morpholin-4-yl-phenyl)-urea], 45.8%. For `CCOc1cnc(-c2ccc(NC(=O)Nc3ccc(NS(C)(=O)=O)cc3)cc2)nc1N1CCOCC1` [MTR-0394, N-(4-{3-[4-(5-Ethoxy-4-morpholin-4-yl-pyrimidin-2-yl)-phenyl]-ureido}-phenyl)-methanesulfonamide] the value was 70.5%; for `CSc1cnc(-c2ccc(NC(=O)Nc3ccc(C(=O)O)cc3)cc2)nc1N1CCOCC1` [MTR-0316, 4-{3-[4-(5-Methylsulfanyl-4-morpholin-4-yl-pyrimidin-2-yl)-phenyl]-ureido}-benzoic acid], 55.9%; for `CSc1c(-c2ccncc2)nc(-c2ccc(NC(=O)Nc3ccc(C(N)=O)cc3)cc2)nc1N1CCOCC1` [MTR-0392, 4-{3-[4-(5-Methylsulfanyl-4-morpholin-4-yl-6-pyridin-4-yl-pyrimidin-2-yl)-phenyl]-ureido}-benzamide], 46.6%. In the case of `CSc1cnc(-c2ccc(NC(=O)Nc3ccc(S(N)(=O)=O)cc3)cc2)nc1N1CCOCC1` [MTR-0288, 4-{3-[4-(5-Methylsulfanyl-4-morpholin-4-yl-pyrimidin-2-yl)-phenyl]-ureido}-benzenesulfonamide], the inhibition at 0.5 µM amounted to 79.2%. As for `CSc1cnc(-c2ccc(NC(=O)Nc3ccncc3)cc2)nc1N1CCOCC1` [MTR-0462, 1-[4-(5-Methylsulfanyl-4-morpholin-4-yl-pyrimidin-2-yl)-phenyl]-3-pyridin-4-yl-urea], the figure is 67.9%; as for `CSc1c(Cl)nc(-c2ccc(NC(=O)Nc3cccnc3)cc2)nc1N1CCOCC1` [MTR-0197, 1-[4-(4-Chloro-5-methylsulfanyl-6-morpholin-4-yl-pyrimidin-2-yl)-phenyl]-3-pyridin-3-yl-urea], 59.8%. For `CSc1c(N2CCOCC2)nc(-c2ccc(NC(=O)Nc3ccccc3)cc2)nc1N1CCN(S(C)(=O)=O)CC1` [MTR-0173, 1-{4-[4-(4-Methanesulfonyl-piperazin-1-yl)-5-methylsulfanyl-6-morpholin-4-yl-pyrimidin-2-yl]-phenyl}-3-phenyl-urea] the value was 82.1%; for `CSc1cnc(-c2ccc(NC(=O)Nc3ccc(C(N)=O)cc3)cc2)nc1N1CCOCC1` [MTR-0267, 4-{3-[4-(5-Methylsulfanyl-4-morpholin-4-yl-pyrimidin-2-yl)-phenyl]-ureido}-benzamide], 83.7%. As for `CCOC(=O)c1nc(-c2ccc(NC(=O)Nc3cccnc3)cc2)nc(N2CCOCC2)c1OCC` [MTR-0205, 5-Ethoxy-6-morpholin-4-yl-2-[4-(3-pyridin-3-yl-ureido)-phenyl]-pyrimidine-4-carboxylic acid ethyl ester], the figure is 42.6%; as for `CCOC(=O)c1nc(-c2ccc(NC(=O)Nc3ccc(C(=O)NCCN(C)C)cc3)cc2)nc(N2CCOCC2)c1OCC` [MTR-0277, 2-(4-{3-[4-(2-Dimethylamino-ethylcarbamoyl)-phenyl]-ureido}-phenyl)-5-ethoxy-6-morpholin-4-yl-pyrimidine-4-carboxylic acid ethyl ester], 61.9%. As to `CSc1c(Cl)nc(-c2ccc(NC(=O)Nc3ccc4oc(=O)[nH]c4c3)cc2)nc1N1CCOCC1` [MTR-0372, 1-[4-(4-Chloro-5-methylsulfanyl-6-morpholin-4-yl-pyrimidin-2-yl)-phenyl]-3-(2-oxo-2,3-dihydro-benzooxazol-5-yl)-urea], the inhibition at 0.5 µM amounted to 95.5%.

Regarding `CCOc1cnc(-c2ccc(NC(=O)Nc3ccc(NC(C)=O)nc3)cc2)nc1N1CCOCC1` [MTR-0442, N-(5-{3-[4-(5-Ethoxy-4-morpholin-4-yl-pyrimidin-2-yl)-phenyl]-ureido}-pyridin-2-yl)-acetamide], the inhibition at 0.5 µM amounted to 79.1%. Turning to `CSc1c(Cl)nc(-c2ccc(NC(=O)Nc3ccc(C(N)=O)cc3)cc2)nc1N1CCOCC1` [MTR-0257, 4-{3-[4-(4-Chloro-5-methylsulfanyl-6-morpholin-4-yl-pyrimidin-2-yl)-phenyl]-ureido}-benzamide], the inhibition at 0.5 µM was found to be 95.5%. For `CSc1c(Cl)nc(-c2ccc(NC(=O)Nc3ccncc3)cc2)nc1N1CCOCC1` [MTR-0469, 1-[4-(4-Chloro-5-methylsulfanyl-6-morpholin-4-yl-pyrimidin-2-yl)-phenyl]-3-pyridin-4-yl-urea], the inhibition at 0.5 µM came to 81.7%. For `CCOC(=O)c1nc(-c2ccc(NC(=O)Nc3ccc(C(N)=O)cc3)cc2)nc(N2CCOCC2)c1OCC` [MTR-0244, 2-{4-[3-(4-Carbamoyl-phenyl)-ureido]-phenyl}-5-ethoxy-6-morpholin-4-yl-pyrimidine-4-carboxylic acid ethyl ester] the value was 60%; for `CSc1c(Cl)nc(-c2ccc(NC(=O)Nc3ccc(C(=O)N4CCN(C)CC4)cc3)cc2)nc1N1CCOCC1` [MTR-0271, 1-[4-(4-Chloro-5-methylsulfanyl-6-morpholin-4-yl-pyrimidin-2-yl)-phenyl]-3-[4-(4-methyl-piperazine-1-carbonyl)-phenyl]-urea], 94.5%; for `CCOc1cnc(-c2ccc(NC(=O)Nc3ccc(C(=O)N4CCOCC4)cc3)cc2)nc1N1CCOCC1` [MTR-0421, 1-[4-(5-Ethoxy-4-morpholin-4-yl-pyrimidin-2-yl)-phenyl]-3-[4-(morpholine-4-carbonyl)-phenyl]-urea], 98.7%. As for `COc1cnc(-c2ccc(NC(=O)Nc3ccc(C(N)=O)cc3)cc2)nc1N1CCOCC1` [MTR-0282, 4-{3-[4-(5-Methoxy-4-morpholin-4-yl-pyrimidin-2-yl)-phenyl]-ureido}-benzamide], the figure is 76.8%; as for `CSc1cnc(-c2ccc(NC(=O)Nc3ccc(N4CCOCC4=O)cc3)cc2)nc1N1CCOCC1` [MTR-0227, 1-[4-(5-Methylsulfanyl-4-morpholin-4-yl-pyrimidin-2-yl)-phenyl]-3-[4-(3-oxo-morpholin-4-yl)-phenyl]-urea], 87%. For `CCOc1cnc(-c2ccc(NC(=O)Nc3ccc(N4CCN(S(C)(=O)=O)CC4)cc3)cc2)nc1N1CCOCC1` [MTR-0420, 1-[4-(5-Ethoxy-4-morpholin-4-yl-pyrimidin-2-yl)-phenyl]-3-[4-(4-methanesulfonyl-piperazin-1-yl)-phenyl]-urea] the value was 58.6%. Regarding `CCOC(=O)c1nc(-c2ccc(NC(=O)Nc3ccc(N4CCOCC4=O)cc3)cc2)nc(N2CCOCC2)c1OCC` [MTR-0222, 5-Ethoxy-6-morpholin-4-yl-2-(4-{3-[4-(3-oxo-morpholin-4-yl)-phenyl]-ureido}-phenyl)-pyrimidine-4-carboxylic acid ethyl ester], the inhibition at 0.5 µM turned out to be 44.3%. With `COc1cnc(-c2ccc(NC(=O)Nc3ccc(C(=O)NCCCN(C)C)cc3)cc2)nc1N1CCOCC1` [MTR-0427, N-(3-Dimethylamino-propyl)-4-{3-[4-(5-methoxy-4-morpholin-4-yl-pyrimidin-2-yl)-phenyl]-ureido}-benzamide], the inhibition at 0.5 µM was found to be 71.1%.

On to `CSc1c(Cl)nc(-c2ccc(NC(=O)Nc3ccc(N4CCN(C)CC4)cc3)cc2)nc1N1CCOCC1` [MTR-0215, 1-[4-(4-Chloro-5-methylsulfanyl-6-morpholin-4-yl-pyrimidin-2-yl)-phenyl]-3-[4-(4-methyl-piperazin-1-yl)-phenyl]-urea], for which the inhibition at 0.5 µM amounted to 53.6%.

Regarding `CCOC(=O)c1nc(-c2ccc(NC(=O)Nc3ccc(N4CCOCC4=O)cc3)cc2F)nc(N2CCOCC2)c1OCC` [MTR-0322, 5-Ethoxy-2-(2-fluoro-4-{3-[4-(3-oxo-morpholin-4-yl)-phenyl]-ureido}-phenyl)-6-morpholin-4-yl-pyrimidine-4-carboxylic acid ethyl ester], the inhibition at 0.5 µM was 44.2%.

The record behind these values is patent US9315491B2 (DEVELOPMENT CENTER FOR BIOTECHNOLOGY, priority 2009, dated 2016).
